Drawing on PubChem BioAssay (NCI), this text covers TGI for 11 molecules.

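All cell lines were grown in 96-well plates and treated with compound for 48 hours. TGI is the concentration that stops growth completely.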

Holding throughout (test): inhibition of tumour cell growth, NCI panel, 48 h
Assay [1] deals with OVCAR-3 ovarian.
The test system of assay [2] is ACHN renal.
The subject of assay [3] is EKVX NSCLC.
Assay [4] has as its system NCI-H522 lung.
Assay [5] relates to COLO 205 colon.
The subject of assay [6] is SNB-19 CNS.
Assay [7] has as its system SF-539 CNS.
Assay [8] deals with K-562 leukemia.
The subject of assay [9] is KM12 colon.
The subject of assay [10] is UO-31 renal.
Assay [11] deals with OVCAR-4 ovarian.
In assay [12] the test system is NCI-H226 lung.
Assay [13] has as its system MCF7 breast.
Assay [14] concerns MDA-MB-435.
Assay [15] relates to T-47D breast.

As to `C[C@@H]1C[C@@H]2C(=O)N(c3ccccc3)C(=O)[C@@H]2c2[nH]c3ccc(Br)cc3c21`, the TGI is 51.7 µM in [1]; more than 100 µM in assay [2]; more than 100 µM in assay [3]; 78.5 µM in assay [4]; more than 100 µM in assay [5]; more than 100 µM in [6]. The TGI was more than 100 µM in assay [7]; more than 100 µM in assay [8]; 75.4 µM in assay [9]; more than 100 µM in assay [10]; 57.9 µM in assay [11].

On to `N#CC(C(=S)Nc1ccccc1)=C1Nc2ccccc2N1`, for which the TGI in [1], in assay [2], in [3], in assay [4], in assay [5] and in assay [12] was more than 10 µM in each case. Besides, the TGI in assay [6], in assay [7], in assay [8], in assay [9], in assay [10] and in [11] was more than 10 µM each time.

As for `COC(=O)[C@H]1C2CC[C@@H]3C45C[C@@H](c6ccoc6)O[C@@H]4O[C@@H](O2)C31CCC5C` (some centres not stated), the TGI in [1], in [2], in assay [3], in assay [4], in assay [5] and in [12] was more than 100 µM throughout. Besides, the TGI in assay [6], in assay [7], in assay [8], in assay [9], in [10] and in assay [11] was more than 100 µM throughout.

Take `CC1=C(c2ccccc2)CON(c2ccccc2)C1`: the TGI in assay [1] was more than 100 µM; in assay [2] it was more than 100 µM; in assay [3], more than 100 µM; in assay [4], 53.8 µM; in assay [5], more than 100 µM; in [12], more than 100 µM. In addition, the TGI in assay [6] was more than 100 µM; in assay [7] it was more than 100 µM; in assay [8], more than 100 µM; in assay [9], more than 100 µM; in [10] it was 97.5 µM; in assay [11] it was more than 100 µM.

In the case of `COc1ccc(/C=N/NC(=O)CSc2nc(-c3ccccc3)c(-c3ccccc3)[nH]2)cc1OC`, the TGI came out at 39.7 µM in assay [1]; 77.2 µM in assay [2]; 72.5 µM in assay [3]; 39.9 µM in assay [4]; 49.2 µM in [5]; 80.4 µM in assay [12]. Moreover, the TGI was more than 100 µM in assay [6]; 45.6 µM in assay [7]; 34 µM in [9]; 69.7 µM in [10]; 87.4 µM in assay [11].

In the case of `CCOC(=O)/C(=C/c1ccccc1)N(CC)CC`, the TGI in assay [1], in assay [2], in assay [3], in assay [4], in assay [5] and in assay [12] was more than 100 µM throughout. For the same molecule, the TGI in [6], in [7], in [8], in [9], in [10] and in assay [11] was more than 100 µM throughout.

For `O=C(c1nc2ccc(Cl)cc2[nH]c1=O)C(O)c1ccco1` (configuration not stated), the TGI in assay [1] was more than 100 µM; in assay [2], more than 100 µM; in [3], more than 100 µM; in [4] it was 32.2 µM; in assay [5], more than 100 µM; in assay [12], more than 100 µM. In addition, the TGI in [6], in [7], in assay [8], in [10] and in assay [11] was more than 100 µM in each case.

Regarding `COc1cccc(C=C(C#N)C#N)c1OC`, the TGI in assay [1], in assay [2], in assay [3], in assay [4], in assay [5] and in assay [12] was more than 100 µM throughout. The TGI in [13], in assay [6], in assay [7], in assay [8], in [9] and in assay [10] was more than 100 µM each time. In assay [11], this molecule had a TGI of more than 100 µM.

`CN(C)c1ccc(C2=C([O-])c3cc(-[n+]4ccccc4)ccc3C2=O)cc1`: the TGI in assay [1], in assay [2], in [3], in [4], in assay [5] and in assay [12] was more than 100 µM each time. The TGI in assay [13], in [6], in assay [7], in assay [8], in [9] and in assay [10] was more than 100 µM throughout. The TGI in [14] and in assay [11] was more than 100 µM throughout.

In the case of `COc1ccc(-n2nnc3c(C#N)c(C)c(-c4ccccc4)n3c2=O)cc1`, the TGI in assay [1] is 44.6 µM; in assay [2] it was more than 100 µM; in [3] it was more than 26.1 µM; in [5] it was 10.6 µM; in assay [12], more than 100 µM; in [13], more than 100 µM. In addition, the TGI was more than 21.6 µM in assay [6]; more than 20 µM in assay [7]; more than 100 µM in assay [9]; more than 100 µM in [10]; more than 100 µM in assay [15]; more than 100 µM in [11].

On to `CCOc1cc2cnc3c4cc(OC)c(OC)cc4ccc3c2cc1OC`, for which the TGI in assay [1], in assay [2], in [3], in assay [4], in assay [5] and in assay [12] was more than 100 µM each time. Moreover, the TGI in assay [6], in assay [7], in assay [8], in assay [9], in assay [10] and in assay [11] was more than 100 µM throughout.
